# Experimental data from patent publication US20230019491A1, “PYRIMIDINE TBK/IKKe INHIBITOR COMPOUNDS AND USES THEREOF” (Merck Patent GmbH, priority 2017, published 2023).
# Assays:
# IKKε = target: T1, IKKε (Homo sapiens, UniProt Q14164); test: IKKε biochemical assay; conditions: 10 point 1:4 dose response, 30 uM top concentration, 90 min at 25° C., LabChip EZ Reader II; read-out: IKKε_IC50
# T1 sequence (Q14164 1-716): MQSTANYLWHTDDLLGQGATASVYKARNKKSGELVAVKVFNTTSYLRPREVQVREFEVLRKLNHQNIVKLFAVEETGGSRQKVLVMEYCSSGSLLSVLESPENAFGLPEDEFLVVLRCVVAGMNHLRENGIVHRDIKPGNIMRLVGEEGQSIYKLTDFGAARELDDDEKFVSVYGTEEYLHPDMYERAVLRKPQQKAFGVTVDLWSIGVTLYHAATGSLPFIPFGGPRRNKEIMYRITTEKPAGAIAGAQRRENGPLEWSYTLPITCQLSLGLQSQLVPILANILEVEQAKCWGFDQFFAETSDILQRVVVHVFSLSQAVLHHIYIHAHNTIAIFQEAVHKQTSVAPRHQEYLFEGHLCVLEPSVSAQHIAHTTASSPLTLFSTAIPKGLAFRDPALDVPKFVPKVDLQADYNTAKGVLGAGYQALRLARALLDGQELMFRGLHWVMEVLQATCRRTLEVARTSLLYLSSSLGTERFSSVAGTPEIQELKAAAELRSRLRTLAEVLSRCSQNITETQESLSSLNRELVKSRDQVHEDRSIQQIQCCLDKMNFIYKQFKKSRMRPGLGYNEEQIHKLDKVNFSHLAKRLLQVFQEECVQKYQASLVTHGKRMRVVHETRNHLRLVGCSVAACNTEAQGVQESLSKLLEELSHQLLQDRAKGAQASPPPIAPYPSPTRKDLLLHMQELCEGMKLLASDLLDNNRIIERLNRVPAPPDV
# Summary of the method: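 Compounds in 1% DMSO final were incubated with IKKε enzyme and substrate at 25° C. for 90 min, then stopped. Substrate and product peaks were resolved by LabChip EZ Reader II mobility-shift read-out. Staurosporine at 10 uM final served as the full-inhibition control.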
# TBK1 = target: T2, TBK1 (Homo sapiens, UniProt Q9UHD2); test: TBK biochemical assay; conditions: 10 point 1:4 dose response, 30 uM top concentration, 90 min at 25° C., LabChip EZ Reader II; read-out: TBK1_IC50
# T2 sequence (Q9UHD2 1-729): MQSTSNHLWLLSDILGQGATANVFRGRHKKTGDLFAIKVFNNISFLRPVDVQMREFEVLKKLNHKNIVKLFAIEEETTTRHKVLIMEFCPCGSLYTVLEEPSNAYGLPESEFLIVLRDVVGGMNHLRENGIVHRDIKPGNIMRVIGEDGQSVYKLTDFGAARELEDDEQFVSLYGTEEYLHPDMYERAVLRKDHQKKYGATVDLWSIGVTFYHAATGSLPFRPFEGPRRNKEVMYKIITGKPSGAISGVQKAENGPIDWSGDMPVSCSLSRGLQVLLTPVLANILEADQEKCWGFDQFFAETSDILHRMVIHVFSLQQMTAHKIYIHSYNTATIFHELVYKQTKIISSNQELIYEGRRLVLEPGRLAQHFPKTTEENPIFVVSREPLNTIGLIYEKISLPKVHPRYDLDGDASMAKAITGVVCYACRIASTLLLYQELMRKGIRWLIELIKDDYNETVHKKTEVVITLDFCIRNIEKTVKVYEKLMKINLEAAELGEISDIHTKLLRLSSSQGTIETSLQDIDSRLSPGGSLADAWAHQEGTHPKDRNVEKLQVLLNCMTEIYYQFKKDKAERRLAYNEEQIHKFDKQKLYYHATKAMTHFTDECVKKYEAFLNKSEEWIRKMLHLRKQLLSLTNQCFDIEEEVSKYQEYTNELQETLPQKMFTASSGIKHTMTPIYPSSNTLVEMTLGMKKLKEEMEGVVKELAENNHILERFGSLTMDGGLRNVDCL
# Summary of the method: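 Substrate and product were separated and quantified by microfluidic mobility-shift read (LabChip). 10 uM staurosporine served as the full-inhibition control, and the reference compound was tested from 1 uM final.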
Structure (SMILES),IC50 (IKKε),IC50 (TBK1)
"C[C@@H](O)C(=O)N1CCC(Oc2ccc(-c3ccnc(Nc4ccc(N5CCN(C6COC6)CC5)cc4)n3)cc2C#N)C1 (stereo partly drawn) [Example 179, 2-([1-[(2R)-2-hydroxypropanoyl]pyrrolidin-3-yl]oxy)-5-[2-([4-[4-(oxetan-3-yl)piperazin-1-yl]phenyl]amino)pyrimidin-4-yl]benzonitrile]",< 0.1 µM,< 0.1 µM
"COc1nc(Nc2nccc(-c3ccc(OC4CCNC4)c(C#N)c3)n2)ccc1N1CCN(C2COC2)CC1 (stereo not shown) [Example 182, 5-[2-([6-methoxy-5-[4-(oxetan-3-yl)piperazin-1-yl]pyridin-2-yl]amino)pyrimidin-4-yl]-2-(pyrrolidin-3-yloxy)benzonitrile]",< 0.1 µM,< 0.1 µM
"COc1nc(Nc2nccc(-c3ccc(OC4CCN(C(=O)[C@H](C)O)C4)c(C#N)c3)n2)ccc1N1CCN(C2COC2)CC1 (stereo partly drawn) [Example 183, 2-([1-[(2S)-2-hydroxypropanoyl]pyrrolidin-3-yl]oxy)-5-[2-([6-methoxy-5-[4-(oxetan-3-yl)piperazin-1-yl]pyridin-2-yl]amino)pyrimidin-4-yl]benzonitrile]",< 0.1 µM,< 0.1 µM
"COc1nc(Nc2nccc(-c3ccc(OC4CCN(C(=O)[C@@H](C)O)C4)c(C#N)c3)n2)ccc1N1CCN(C2COC2)CC1 (stereo partly drawn) [Example 184, 2-([1-[(2R)-2-hydroxypropanoyl]pyrrolidin-3-yl]oxy)-5-[2-([6-methoxy-5-[4-(oxetan-3-yl)piperazin-1-yl]pyridin-2-yl]amino)pyrimidin-4-yl]benzonitrile]",0.1 to 1 µM,0.1 to 1 µM
"COc1nc(Nc2nccc(-c3ccc(OC4CCNCC4)c(C#N)c3)n2)ccc1N1CCN(C2COC2)CC1 [Example 185, 5-[2-({6-methoxy-5-[4-(oxetan-3-yl)piperazin-1-yl]pyridin-2-yl}amino)pyrimidin-4-yl]-2-(piperidin-4-yloxy)benzonitrile]",< 0.1 µM,< 0.1 µM
"COc1nc(Nc2nccc(-c3ccc(OC4CCN(C(=O)CO)CC4)c(C#N)c3)n2)ccc1N1CCN(C2COC2)CC1 [Example 186, 2-(1-(2-hydroxyacetyl)piperidin-4-yloxy)-5-(2-(6-methoxy-5-(4-(oxetan-3-yl)piperazin-1-yl)pyridin-2-ylamino)pyrimidin-4-yl)benzonitrile]",< 0.1 µM,< 0.1 µM
"COc1nc(Nc2nccc(-c3ccc(OC4CCN(C(=O)[C@H](C)O)CC4)c(C#N)c3)n2)ccc1N1CCN(C2COC2)CC1 [Example 187, 2-([1-[(2S)-2-hydroxypropanoyl]piperidin-4-yl]oxy)-5-[2-([6-methoxy-5-[4-(oxetan-3-yl)piperazin-1-yl]pyridin-2-yl]amino)pyrimidin-4-yl]benzonitrile]",< 0.1 µM,< 0.1 µM
"COc1nc(Nc2nccc(-c3ccc(O[C@H]4CCN(C(=O)[C@@H](C)O)C[C@@H]4F)c(C#N)c3)n2)ccc1C1CCN(C2COC2)CC1 [Example 188, 2-[(3S,4S)-3-Fluoro-1-((R)-2-hydroxy-propionyl)-piperidin-4-yloxy]-5-[2-(2-methoxy-1′-oxetan-3-yl-1′,2′,3′,4′,5′,6′-hexahydro-[3,4′]bipyridinyl-6-ylamino)-pyrimidin-4-yl]-benzonitrile]",< 0.1 µM,< 0.1 µM
"COc1nc(Nc2nccc(-c3ccc(O[C@H]4CCN(C(=O)[C@H](C)O)C[C@@H]4F)c(C#N)c3)n2)ccc1C1CCN(C2COC2)CC1 [Example 189, 2-[(3S,4S)-3-Fluoro-1-((S)-2-hydroxy-propionyl)-piperidin-4-yloxy]-5-[2-(2-methoxy-1′-oxetan-3-yl-1′,2′,3′,4′,5′,6′-hexahydro-[3,4′]bipyridinyl-6-ylamino)-pyrimidin-4-yl]-benzonitrile]",< 0.1 µM,< 0.1 µM
"COc1nc(Nc2nccc(-c3ccc(O[C@H]4CCN(C(=O)C(C)O)C[C@H]4F)c(C#N)c3)n2)ccc1N1CCN(C2COC2)CC1 (stereo partly drawn) [Example 190, 2-[[(3R,4S)-3-fluoro-1-(2-hydroxypropanoyl)piperidin-4-yl]oxy]-5-[2-([6-methoxy-5-[4-(oxetan-3-yl)piperazin-1-yl]pyridin-2-yl]amino)pyrimidin-4-yl]benzonitrile]",< 0.1 µM,< 0.1 µM
"COc1nc(Nc2nccc(-c3ccc(O[C@H]4CCN(C(=O)[C@H](C)O)C[C@@H]4F)c(C#N)c3)n2)ccc1N1CCN(C2COC2)CC1 [Example 196, 2-[(3S,4S)-3-Fluoro-1-((S)-2-hydroxy-propionyl)-piperidin-4-yloxy]-5-{2-[6-methoxy-5-(4-oxetan-3-yl-piperazin-1-yl)-pyridin-2-ylamino]-pyrimidin-4-yl}-benzonitrile]",< 0.1 µM,< 0.1 µM
"COc1nc(Nc2nccc(-c3ccc(O[C@H]4CCN(C(=O)[C@@H](O)CO)C[C@@H]4F)c(C#N)c3)n2)ccc1N1CCN(C2COC2)CC1 [Example 197, 2-[(3S,4S)-1-((S)-2,3-Dihydroxy-propionyl)-3-fluoro-piperidin-4-yloxy]-5-{2 [6-methoxy-5-(4-oxetan-3-yl-piperazin-1-yl)-pyridin-2-ylamino]-pyrimidin-4-yl}-benzonitrile]",< 0.1 µM,< 0.1 µM

# More lines, now with the values ahead:
IC50 (IKKε),IC50 (TBK1),Structure (SMILES)
< 0.1 µM,< 0.1 µM,"COc1nc(Nc2nccc(-c3ccc(O[C@H]4CCN(C(=O)[C@H](C)O)C[C@H]4F)c(C#N)c3)n2)ccc1C1CCN(C2COC2)CC1 [Example 191, 2-[(3R,4S)-3-Fluoro-1-((S)-2-hydroxy-propionyl)-piperidin-4-yloxy]-5-[2-(2-methoxy-1′-oxetan-3-yl-1′,2′,3′4′,5′,6′-hexahydro-[3,4′]bipyridinyl-6-ylamino)-pyrimidin-4-yl]-benzonitrile]"
< 0.1 µM,< 0.1 µM,"COc1nc(Nc2nccc(-c3ccc(O[C@@H]4CCN(C(=O)[C@H](C)O)C[C@H]4F)c(C#N)c3)n2)ccc1C1CCN(C2COC2)CC1 [Example 192, 2-[(3R,4R)-3-Fluoro-1-((S)-2-hydroxy-propionyl)-piperidin-4-yloxy]-5-[2-(2-methoxy-1′-oxetan-3-yl-1′,2′,3′,4′,5′,6′-hexahydro-[3,4′]bipyridinyl-6-ylamino)-pyrimidin-4-yl]-benzonitrile]"
0.1 to 1 µM,0.1 to 1 µM,"COc1nc(Nc2nccc(-c3ccc(O[C@@H]4CCN(C(=O)[C@@H](C)O)C[C@H]4F)c(C#N)c3)n2)ccc1C1CCN(C2COC2)CC1 [Example 193, 2-[(3R,4R)-3-Fluoro-1-((R)-2-hydroxy-propionyl)-piperidin-4-yloxy]-5-[2-(2-methoxy-1′-oxetan-3-yl-1′,2′,3′,4′,5′,6′-hexahydro-[3,4′]bipyridinyl-6-ylamino)-pyrimidin-4-yl]-benzonitrile]"
< 0.1 µM,< 0.1 µM,"COc1nc(Nc2nccc(-c3ccc(O[C@@H]4CCN(C(=O)[C@H](C)O)C[C@@H]4F)c(C#N)c3)n2)ccc1C1CCN(C2COC2)CC1 [Example 194, 2-[(3S,4R)-3-Fluoro-1-((S)-2-hydroxy-propionyl)-piperidin-4-yloxy]-5-[2-(2-methoxy-1′-oxetan-3-yl-1′,2′,3′,4′,5′,6′-hexahydro-[3,4′]bipyridinyl-6-ylamino)-pyrimidin-4-yl]-benzonitrile]"
0.1 to 1 µM,0.1 to 1 µM,"COc1nc(Nc2nccc(-c3ccc(O[C@@H]4CCN(C(=O)[C@@H](C)O)C[C@@H]4F)c(C#N)c3)n2)ccc1C1CCN(C2COC2)CC1 [Example 195, 2-[(3S,4R)-3-Fluoro-1-((R)-2-hydroxy-propionyl)-piperidin-4-yloxy]-5-[2-(2-methoxy-1′-oxetan-3-yl-1′,2′,3′,4′,5′,6′-hexahydro-[3,4′]bipyridinyl-6-ylamino)-pyrimidin-4-yl]-benzonitrile]"
